Patent publication US20110086834A1, “ALKYNYL ALCOHOLS AS KINASE INHIBITORS” (AMGEN INC., priority 2008, published 2011)

These compounds were tested against T1, NIK (Homo sapiens, UniProt Q99558) (assay: homogenous time resolved fluorescence (HTRF) assay for NIK Ki measurement). Details: truncated NIK (catalytic domain only), autophosphorylation; 10 nM enzyme; 20, 100, 200 or 500 μM ATP; room temperature, 2 hours; read-out: Ki activity in the homogenous time resolved fluorescence (HTRF) assay for NIK.
T1 construct: Both assays utilize a truncated form of NIK containing only the catalytic domain; made in house; host or cells: baculovirus expression system (insect cells implied)
T1 sequence (Q99558 400-655 limits assumed): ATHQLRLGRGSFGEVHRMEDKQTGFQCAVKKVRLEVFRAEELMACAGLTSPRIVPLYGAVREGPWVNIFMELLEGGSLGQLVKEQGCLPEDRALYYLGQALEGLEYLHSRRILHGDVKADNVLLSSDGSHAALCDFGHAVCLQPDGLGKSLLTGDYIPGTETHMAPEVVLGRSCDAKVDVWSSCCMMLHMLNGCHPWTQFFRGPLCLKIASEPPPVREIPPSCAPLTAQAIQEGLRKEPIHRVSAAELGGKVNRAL
Type: biochemical

| SMILES | Ki [nM] |
| --- | --- |
| CN1CCC2(CC1)CN(c1nc(N)ncc1Cl)c1cc(C#CC(C)(O)c3nccs3)ccc12 (stereo not shown) [Example 282, 4-(1-(2-Amino-5-chloro-4-pyrimidinyl)-1′-methyl-1,2-dihydrospiro[indole-3,4′-piperidin]-6-yl)-2-(1,3-thiazol-2-yl)-3-butyn-2-ol] | < 1000 |
| COc1cc(Nc2cc(-n3ccc4ccc(C#CC5(O)CCCC5)cc43)ncn2)cc(OC)c1OC [Example 258, 1-((1-(6-((3,4,5-tris(methyloxy)phenyl)amino)-4-pyrimidinyl)-1H-indol-6-yl)ethynyl)cyclopentanol] | 1000 to 30000 |
| Cc1ncc2c(n1)-c1c([nH]c3ccc(C#CC(C)(C)O)cc13)CCC2 [Example 242, 2-Methyl-4-(2-methyl-5,6,7,8-tetrahydropyrimido[4′,′:3,4]cyclohepta[1,2-b]indol-1′-yl)-3-butyn-2-ol] | 1000 to 30000 |
| COc1ccc(Nc2cc(-n3ccc4ccc(C#CC5(O)CCCC5)cc43)ncn2)cc1 [Example 260, 1-((1-(6-((4-(methyloxy)phenyl)amino)-4-pyrimidinyl)-1H-indol-6-yl)-ethynyl)-cyclopentanol] | 1000 to 30000 |
| CC(O)(C#Cc1ccc2c(c1)N(c1ccnc(N)n1)CC2)c1ccn[nH]1 (stereo not shown) [Example 77, 4-(1-(2-Amino-4-pyrimidinyl)-2,3-dihydro-1H-indol-6-yl)-2-(1H-pyrazol-5-yl)-3-butyn-2-ol] | < 1000 |
| C[C@](O)(C#Cc1ccc2c(c1)N(c1ccnc(N)n1)CC2)c1nccs1 [Example 297, (2S)-4-(1-(2-amino-4-pyrimidinyl)-2,3-dihydro-1H-indol-6-yl)-2-(1,3-thiazol-2-yl)-3-butyn-2-ol] | < 1000 |
| COC(=O)C(C)(O)C#Cc1ccc2c(c1)N(c1nc(N)ncc1Cl)CC2(C)C (stereo not shown) [Example 48, methyl 4-(1-(2-amino-5-chloro-4-pyrimidinyl)-3,3-dimethyl-2,3-dihydro-1H-indol-6-yl)-2-hydroxy-2-methyl-3-butynoate] | < 1000 |
| CC(O)(C#Cc1ccc2c(c1)N(c1nc(N)ncc1Cl)CC2(C)C)c1ccccn1 (stereo not shown) [Example 304, 4-(1-(2-Amino-5-chloro-4-pyrimidinyl)-3,3-dimethyl-2,3-dihydro-1H-indol-6-yl)-2-(2-pyridinyl)-3-Butyn-2-ol] | < 1000 |
| Nc1ncc(Cl)c(-c2cn(CCN3CCOCC3)c3ccc(C#CC4(O)CCCCC4)cc23)n1 [Example 132, 1-(2-(3-(2-amino-5-chloropyrimidin-4-yl)-1-(2-morpholinoethyl)-1H-indol-5-yl)ethynyl)cyclohexanol] | < 1000 |
| CN1CC2(C1)CN(c1nc(N)ncc1Cl)c1cc(C#CC(C)(O)c3nccs3)ccc12 (single isomer, unassigned) [Example 182a, (2S*)-4-(1′-(2-Amino-5-chloro-4-pyrimidinyl)-1-methyl-1′,2′-dihydrospiro[azetidine-3,3′-indol]-6′-yl)-2-(1,3-thiazol-2-yl)-3-Butyn-2-ol] | 1000 to 30000 |
| CC(O)(C#Cc1ccc(O[C@H]2CCOC2)c(Nc2ccncc2)c1)c1nccs1 (stereo partly shown) [Example 169] | 1000 to 30000 |
| COCCN(C)c1ccc(C#CC(C)(O)c2cc(C)on2)cc1Nc1nc(N)ncc1Cl (stereo not shown) [Example 151, 4-(3-(2-Amino-5-chloropyrimidin-4-ylamino)-4-((2-methoxyethyl)(methyl)amino)phenyl)-2-(5-methylisoxazol-3-yl)but-3-yn-2-ol] | < 1000 |
| COCCOc1ccc(C#C[C@@](C)(O)c2cc(C)on2)cc1Nc1nc(N)ncc1Cl (single isomer, unassigned) [Example 179] | < 1000 |
| Nc1ncc(Cl)c(N2CC(CO)(CO)c3ccc(C#CC4(O)CCCC4)cc32)n1 [Example 62, 1-((1-(2-amino-5-chloro-4-pyrimidinyl)-3,3-bis(hydroxymethyl)-2,3-dihydro-1H-indol-6-yl)ethynyl)cyclopentanol] | < 1000 |
| COCCOc1cnc(N)nc1-c1c[nH]c2c(F)cc(C#CC3(O)CCCC3)cc12 [Example 229, 1-((3-(2-Amino-5-(2-methoxyethoxy)-4-pyrimidinyl)-7-fluoro-1H-indol-5-yl)ethynyl)cyclopentanol] | < 1000 |
| C[C@@](O)(C#Cc1ccc2c(c1)N(c1nc(N)ncc1Cl)C[C@]21CCOC1)c1nccs1 (stereo in doubt) [Example 202, (2R)-4-((3S*)-1′-(2-Amino-5-chloro-4-pyrimidinyl)-1′,2′,4,5-tetrahydrospiro[furan-3,3′-indol]-6′-yl)-2-(1,3-thiazol-2-yl)-3-butyn-2-ol] | < 1000 |
| Nc1nccc(-n2ccc3c(O)cc(C#CC4(O)CCCC4)cc32)n1 [Example 99, 1-(2-aminopyrimidin-4-yl)-6-(2-(1-hydroxycyclopentyl)ethynyl)-1H-indol-4-ol] | < 1000 |
| Cc1cc(C(C)(O)C#Cc2ccc(F)c(Nc3nc(N)ncc3Cl)c2)no1 (stereo not shown) [Example 167, 4-(3-(2-Amino-5-chloropyrimidin-4-ylamino)-4-fluorophenyl)-2-(5-methylisoxazol-3-yl)but-3-yn-2-ol] | < 1000 |
| COCCOCCn1cc(-c2nc(N)ncc2Cl)c2cc(C#CC3(O)CCCCC3)ccc21 [Example 131, 1-(2-(3-(2-amino-5-chloropyrimidin-4-yl)-1-(2-(2-methoxyethoxy)ethyl)-1H-indol-5-yl)ethynyl)cyclohexanol] | < 1000 |

More lines, now with the values ahead:

| Ki [nM] | SMILES |
| --- | --- |
| < 1000 | CN1CCC2(C1)CN(c1nc(N)ncc1F)c1cc(C#CC3(O)CCCC3)ccc12 (racemic) [Example 190, (rac)-1-((1-(2-Amino-5-fluoro-4-pyrimidinyl)-1′-methyl-1,2-dihydrospiro[indole-3,3′-pyrrolidin]-6-yl)ethynyl)cyclopentanol] |
| < 1000 | CC(O)(C#Cc1ccc2c(c1)N(c1nc(N)ncc1Cl)CC2(C)C)c1ccn[nH]1 (stereo not shown) [Example 80, 4-(1-(2-amino-5-chloropyrimidin-4-yl)-3,3-dimethylindolin-6-yl)-2-(1H-pyrazol-5-yl)but-3-yn-2-ol and 4-(1-(2-amino-5-chloropyrimidin-4-yl)-3,3-dimethylindolin-6-yl)-2-(1H-pyrazol-3-yl)but-3-yn-2-ol] |
| < 1000 | CC(O)(C#Cc1ccc2ncc(-c3nc(N)ncc3Cl)n2c1)c1ncco1 (stereo not shown) [Example 309, 4-(3-(2-Amino-5-chloro-4-pyrimidinyl)imidazo[1,2-a]pyridin-6-yl)-2-(1,3-oxazol-2-yl)-3-Butyn-2-ol] |
| < 1000 | CC1(C)CN(c2nc(N)ncc2F)c2cc(C#CC3(O)CCCC3)ccc21 [Example 65, 1-((1-(2-amino-5-fluoro-4-pyrimidinyl)-3,3-dimethyl-2,3-dihydro-1H-indol-6-yl)ethynyl)cyclopentanol] |
| < 1000 | Cc1cc(C(C)(O)C#Cc2ccc(O[C@H]3CCOC3)c(Nc3nc(N)ncc3Cl)c2)no1 (stereo partly shown) [Example 156] |
| < 1000 | Nc1ncc2c(n1)-c1c([nH]c3ccc(C#CC4(O)CCCC4)cc13)C(=O)NC2 [Example 243, 2-Amino-11-((1-hydroxycyclopentyl)ethynyl)-5,8-dihydropyrimido[4′,′:5,6]azepino[3,4-b]indol-7(6H)-one] |
| < 1000 | Cc1nc(C(C)(O)C#Cc2ccc3c(c2)N(c2nc(N)ncc2Cl)CC3)no1 (stereo not shown) [Example 2, 4-(1-(2-amino-5-chloropyrimidin-4-yl)indolin-6-yl)-2-(5-methyl-1,2,4-oxadiazol-3-yl)but-3-yn-2-ol] |
| < 1000 | COCCOc1cc(C#CC2(O)CCCC2)cc2c1ccn2-c1ccnc(N)n1 [Example 100, 1-(2-(1-(2-aminopyrimidin-4-yl)-4-(2-methoxyethoxy)-1H-indol-6-yl)ethynyl)cyclopentanol] |
| < 1000 | Cc1cc([C@@](C)(O)C#Cc2ccc3c(c2)N(c2nc(N)ncc2Cl)CC32CCOCC2)on1 (single isomer, unassigned) [Example 30] |
| < 1000 | COc1cnc(N)nc1-c1c[nH]c2ccc(C#CC3(O)CCCC3)cc12 [Example 227, 1-((3-(2-Amino-5-methoxy-4-pyrimidinyl)-1H-indol-5-yl)ethynyl)cyclopentanol] |
| < 1000 | Cc1nc(C(C)(O)C#Cc2ccc3c(c2)N(c2ccnc(N)n2)CC3)cs1 (stereo not shown) [Example 288, 4-(1-(2-Amino-4-pyrimidinyl)-2,3-dihydro-1H-indol-6-yl)-2-(2-methyl-1,3-thiazol-4-yl)-3-butyn-2-ol] |
| < 1000 | COCCNC(=O)c1[nH]c2ccc(C#CC(C)(O)c3nccs3)cc2c1-c1ccncn1 (stereo not shown) [Example 89, 5-(3-hydroxy-3-(thiazol-2-yl)but-1-ynyl)-N-(2-methoxyethyl)-3-(pyrimidin-4-yl)-1H-indole-2-carboxamide] |
| < 1000 | CC(O)(C#Cc1ccc2c(c1)N(c1ccnc(N)n1)CC2)c1ccc(Cl)s1 (stereo not shown) [Example 281, 4-(1-(2-Amino-4-pyrimidinyl)-2,3-dihydro-1H-indol-6-yl)-2-(5-chloro-2-thienyl)-3-butyn-2-ol] |
| < 1000 | CNC(=O)C(C)(O)C#Cc1ccc2c(c1)N(c1nc(N)ncc1Cl)CC2(C)C (stereo not shown) [Example 49, 4-(1-(2-amino-5-chloro-4-pyrimidinyl)-3,3-dimethyl-2,3-dihydro-1H-indol-6-yl)-2-hydroxy-N,2-dimethyl-3-butynamide] |
| < 1000 | CCC(C)(O)C#Cc1ccc2c(c1)N(c1ccnc(N)n1)CC2 (stereo not shown) [Example 265, 1-(1-(2-Amino-4-pyrimidinyl)-2,3-dihydro-1H-indol-6-yl)-3-methyl-1-pentyn-3-ol] |
| < 1000 | CC(O)(C#Cc1ccc2c(c1)N(c1nc(N)ncc1Cl)CC21CCCOC1)c1nccs1 (stereo not shown) [Example 248, 4-(1-(2-Amino-5-chloro-4-pyrimidinyl)-1,2,5′,6′-tetrahydro-4′H-spiro[indole-3,3′-pyran]-6-yl)-2-(1,3-thiazol-2-yl)-3-butyn-2-ol] |
| < 1000 | COc1ccc(C#CC2(O)CCCC2)cc1Nc1ccnc(N)n1 [Example 270, 1-((3-((2-amino-4-pyrimidinyl)amino)-4-(methyloxy)phenyl)ethynyl)cyclopentanol] |
| < 1000 | COCCNC(=O)c1c(-c2ccncn2)c2cc(C#CC(C)(O)c3nccs3)ccc2n1C (stereo not shown) [Example 90, 5-(3-hydroxy-3-(thiazol-2-yl)but-1-ynyl)-N-(2-methoxyethyl)-1-methyl-3-(pyrimidin-4-yl)-1H-indole-2-carboxamide] |
